What is called Ki is a measure of affinity in units of concentration, obtained from inhibition or displacement. A high value points to weaker binding.

Results on 18 compounds are retold here after ChEMBL document CHEMBL1134213, “Synthesis and SAR of benzamidine factor Xa inhibitors containing a vicinally-substituted heterocyclic core” (Bioorg Med Chem Lett, 2001).

One experiment has as its target Trypsin (Homo sapiens, UniProt P07477+P07478+P35030). Kind of experiment: Binding affinity towards human trypsin. It counts as protein assay.
Another experiment has as its target Prothrombin (Homo sapiens, UniProt P00734). Nature of the experiment: Binding affinity towards human thrombin.
Experiment [1] addresses Coagulation factor X (Homo sapiens, UniProt P00742). Nature of the experiment: Binding affinity towards human Serine protease FXa.
The species entered for a further experiment is Oryctolagus cuniculus. Nature of the experiment: Antithrombotic efficacy was determined in a rabbit (A-V) shunt model. It counts as functional.
In experiment [2] the target is T1, Coagulation factor X (Oryctolagus cuniculus, UniProt O19045).
T1 sequence (O19045 whole entry): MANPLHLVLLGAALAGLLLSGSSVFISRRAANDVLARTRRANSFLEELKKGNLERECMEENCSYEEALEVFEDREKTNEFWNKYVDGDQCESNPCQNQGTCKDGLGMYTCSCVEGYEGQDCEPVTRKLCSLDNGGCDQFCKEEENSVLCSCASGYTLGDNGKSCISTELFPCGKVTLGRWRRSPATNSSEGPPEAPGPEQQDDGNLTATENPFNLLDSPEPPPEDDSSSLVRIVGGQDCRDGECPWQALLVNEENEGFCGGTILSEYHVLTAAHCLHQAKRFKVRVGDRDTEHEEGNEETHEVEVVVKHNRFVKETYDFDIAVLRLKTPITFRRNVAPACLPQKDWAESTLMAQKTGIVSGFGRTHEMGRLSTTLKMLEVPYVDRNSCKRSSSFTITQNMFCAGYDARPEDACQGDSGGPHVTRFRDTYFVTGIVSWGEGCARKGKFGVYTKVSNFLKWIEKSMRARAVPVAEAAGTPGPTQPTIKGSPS
Kind of experiment: Binding affinity towards Rabbit Coagulation factor X in a rabbit arterio-venous (A-V) shunt model.

Chain of Coagulation factor X (Homo sapiens, UniProt P00742) (P00742 41-179 limits assumed): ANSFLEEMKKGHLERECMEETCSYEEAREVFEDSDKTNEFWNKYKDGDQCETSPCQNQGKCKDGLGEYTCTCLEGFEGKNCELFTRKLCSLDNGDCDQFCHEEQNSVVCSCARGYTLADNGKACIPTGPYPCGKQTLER
Chain of Coagulation factor X (Homo sapiens, UniProt P00742) (P00742 235-488 limits assumed): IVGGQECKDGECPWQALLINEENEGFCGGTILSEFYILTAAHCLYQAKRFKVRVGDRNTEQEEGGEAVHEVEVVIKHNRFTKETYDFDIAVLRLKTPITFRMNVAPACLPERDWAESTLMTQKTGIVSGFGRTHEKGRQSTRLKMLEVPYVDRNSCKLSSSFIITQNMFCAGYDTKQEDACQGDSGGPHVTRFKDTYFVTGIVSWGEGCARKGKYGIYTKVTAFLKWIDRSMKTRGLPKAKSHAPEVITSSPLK

On Trypsin, `N=C(N)c1cccc(-n2cccc2C(=O)Nc2ccc(-c3ccccc3S(N)(=O)=O)cc2)c1` came in with a Ki of 56 nM.

`N=C(N)c1cccc(-n2nccc2C(=O)Nc2ccc(-c3ccccc3S(N)(=O)=O)cc2)c1` came in with a Ki at Trypsin of 15 nM.

Take `Cc1cn(-c2cccc(C(=N)N)c2)c(C(=O)Nc2ccc(-c3ccccc3S(N)(=O)=O)cc2)n1.O=C(O)C(F)(F)F`: the Ki is 27 nM on Trypsin, 600 nM on Prothrombin and 0.3 nM on Coagulation factor X [1].

For the compound `N=C(N)c1cccc(-c2ncsc2C(=O)Nc2ccc(-c3ccccc3S(N)(=O)=O)cc2)c1.O=C(O)C(F)(F)F`, the Ki is 97 nM on Trypsin, above 6300 nM on Prothrombin and 0.82 nM on Coagulation factor X [1].

Take `N=C(N)c1cccc(-c2ocnc2C(=O)Nc2ccc(-c3ccccc3S(N)(=O)=O)cc2)c1.O=C(O)C(F)(F)F`: the inhibition constant (Ki) at Trypsin amounted to 261 nM; on Prothrombin, 3300 nM; at Coagulation factor X [1] it was 2.5 nM. Besides, the ID50 in the experiment filed under Oryctolagus cuniculus is 0.54 µM/h/kg.

On Trypsin, `N=C(N)c1cccc(-c2nocc2C(=O)Nc2ccc(-c3ccccc3S(N)(=O)=O)cc2)c1.O=C(O)C(F)(F)F` returned a Ki of 21 nM. In addition, the ID50 in the experiment listed under Oryctolagus cuniculus was 0.31 µM/h/kg.

For `N=C(N)c1cccc(-c2ccccc2C(=O)Nc2ccc(-c3ccccc3S(N)(=O)=O)cc2)c1.O=C(O)C(F)(F)F`, the results for the Ki at Trypsin, on Prothrombin and at Coagulation factor X [1] were 780 nM, above 6300 nM and 8.2 nM, respectively.

Consider `Cc1nc(-c2cccc(C(=N)N)c2)c(C(=O)Nc2ccc(-c3ccccc3S(N)(=O)=O)cc2)o1.O=C(O)C(F)(F)F`, for which the Ki was 190 nM at Trypsin, 3600 nM at Prothrombin and 0.4 nM at Coagulation factor X [1].

For the compound `N=C(N)c1cccc(-c2[nH]c(O)nc2C(=O)Nc2ccc(-c3ccccc3S(N)(=O)=O)cc2)c1.O=C(O)C(F)(F)F`, the Ki at Trypsin was 390 nM; at Prothrombin, 6000 nM; at Coagulation factor X [1] it was 2.3 nM.

For the compound `N=C(N)c1cccc(-n2nncc2C(=O)Nc2ccc(-c3ccccc3S(N)(=O)=O)cc2)c1.O=C(O)C(F)(F)F`, the Ki at Trypsin stood at 3.4 nM; on Prothrombin, 300 nM; at Coagulation factor X [1], 0.023 nM.

As to `N=C(N)c1cccc(-n2nnnc2C(=O)Nc2ccc(-c3ccccc3S(N)(=O)=O)cc2)c1.O=C(O)C(F)(F)F`, the Ki was 6.4 nM on Trypsin, 300 nM at Prothrombin and 0.037 nM at Coagulation factor X [1]. In the experiment listed under Oryctolagus cuniculus, this compound had an ID50 of 0.13 µM/h/kg.

Take `Cc1nc(-c2cccc(C(=N)N)c2)c(C(=O)Nc2ccc(-c3ccccc3S(N)(=O)=O)cc2)s1.O=C(O)C(F)(F)F`: the Ki on Trypsin turned out to be 60 nM; on Prothrombin it was 1250 nM; on Coagulation factor X [2] it was 0.08 nM; on Coagulation factor X [1], 0.06 nM. This compound had an ID50 in the experiment filed under Oryctolagus cuniculus of 0.5 µM/h/kg.

Regarding `N=C(N)c1cccc(-c2ncccc2C(=O)Nc2ccc(-c3ccccc3S(N)(=O)=O)cc2)c1.O=C(O)C(F)(F)F`, the Ki on Trypsin amounted to 260 nM; on Prothrombin, 15400 nM; on Coagulation factor X [1], 1 nM.

On to `N=C(N)c1cccc(-n2ccnc2C(=O)Nc2ccc(-c3ccccc3S(N)(=O)=O)cc2)c1.O=C(O)C(F)(F)F`, for which the figures for the inhibition constant (Ki) at Trypsin, at Prothrombin and at Coagulation factor X [1] were 26 nM, 800 nM and 0.33 nM, respectively.

For the compound `Cn1cc(C(=O)Nc2ccc(-c3ccccc3S(N)(=O)=O)cc2)c(-c2cccc(C(=N)N)c2)n1.O=C(O)C(F)(F)F`, the Ki on Trypsin stood at 220 nM; at Prothrombin, 2640 nM; at Coagulation factor X [1], 0.2 nM.

With `N=C(N)c1cccc(-n2cncc2C(=O)Nc2ccc(-c3ccccc3S(N)(=O)=O)cc2)c1.O=C(O)C(F)(F)F`, the Ki amounted to 58 nM on Trypsin, 3200 nM on Prothrombin and 1.1 nM on Coagulation factor X [1].

Take `Cc1nc(C(=O)Nc2ccc(-c3ccccc3S(N)(=O)=O)cc2)c(-c2cccc(C(=N)N)c2)[nH]1.O=C(O)C(F)(F)F`: the Ki at Trypsin was 1100 nM; on Prothrombin, above 21000 nM; on Coagulation factor X [1], 6 nM.

Turning to `Cc1cc(C(=O)Nc2ccc(-c3ccccc3S(N)(=O)=O)cc2)n(-c2cccc(C(=N)N)c2)n1.O=C(O)C(F)(F)F`, the ID50 in the experiment filed under Oryctolagus cuniculus came out at 0.023 µM/h/kg.
